Results taken from patent US20250129021A1, “SMALL MOLECULE PROTEIN SYNTHESIS MODULATORS” (Interdict Bio, Inc., priority 2023, published 2025).
Where two headings read alike, the source gives them in different places.

Columns and labels:
Type in all cases: biochemical
MYC = test: In vitro transcription-translation (IVTT) assay, MYC reporter; settings: IVTT assay, HeLa S3 lysate, MYC reporter, normalized sfGFP/mCherry ratio; half-log dilutions 30 μM-0.1 μM, 2 hrs at 30° C.
Procedure, shortened: (§1)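 Reporter: mCherry, P2A, then 3×FLAG-target peptide-sfGFP fusion, IRES-initiated; HeLa S3 lysate IVTT; cpd dilutions 30 μM−0.1 μM half-log in 100% DMSO (dilution-plate conc); DNA added last; 2 h, 30° C; PBS quench.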

MCL-1 = test: In vitro transcription-translation (IVTT) assay, MCL-1 reporter; settings: HeLa S3 lysate, read-out: MCL1 IC50
Procedure, shortened: as §1

CCNE1 [1] = test: In vitro transcription-translation (IVTT) assay, CCNE1 reporter; settings: HeLa S3 lysate, sfGFP/mCherry ratio
Method: (§2) In vitro transcription-translation assay setup: Each assay includes a master mix containing lysate and shared components, a 96-well plate containing compound titrations for testing, a 96-well DNA plate with reporter constructs to be tested, 96-well skirted PCR plates, and 96-well flat-bottom, black, fluorescent assay plates. Reaction materials setup: (A) Master mix—15 mL conical tube (3 mL of HeLa S3 Lysate described above; 0.6 mL of ThermoFisher Accessory Proteins (#88882); 1.2 ml of ThermoFisher Reaction Mix (#88882); 0.54 mL of nuclease-free Water); (B) 96-Well Master Mix+Compound Plate (Half-log dilutions (30 μM−0.1 μM) of 4 compounds of interest are prepared in 100% DMSO); 96-Well DNA Plate (Five DNA constructs are plated into single columns within the plate. Row 1 of the column contains nuclease free H2O, all other wells contain 110 ng/μL plasmid DNA). Reactions are started by mixing 155 μL of master mix and 3.5 μL of compound serial dilutions, then 9.1 μL of master mix+compound mixture is aliquoted across 5 96-well plates. Reactions begin with final addition of 2 μL of DNA for a 11.1 μL reaction volume in each well. The entire plate is sealed, and incubated for 2 hrs at 30° C. After 2 hrs, quench the assay using 45 μL of PBS, and transfer 50 μL to a flat-bottom black microplate Quantify the sfGFP and mCherry signals from each well on each plate, taking 3 reads of each plate, and perform data analysis below.
(§3) In vitro transcription-translation assay data analysis: Each plate is read three times in channels for both sfGFP and mCherry signals. The average signal across these 3 reads is then calculated for further analysis. Control wells containing no DNA reporter are subtracted from reporter wells in the same column to remove auto-fluorescence of the lysate. Then, the ratio of sfGFP/mCherry is calculated per well, and these ratios are averaged across the triplicate experiments on the same plate. Finally, the ratio of each titration concentration is normalized to the no drug control to create the normalized stalling metric. The error on this measurement is determined by propagating error through the averaging and normalization steps. Values are plotted and fit for IC50 determination for each test sequence and titration of compound.

CCND1 = test: In vitro transcription-translation (IVTT) assay, CCND1 reporter; settings: IVTT, HeLa S3 lysate, 2 hrs at 30° C.
Procedure, shortened: as §1

CCNE1 [2] = test: In vitro transcription-translation (IVTT) assay, CCNE1 reporter; settings: HeLa S3 lysate, 2 hrs at 30° C.
Method: Each preparation takes 8 cell pellets (4 ml packed volume each, approximately 1.0×10^9 cells per pellet). Thaw cell pellets from −80° C. on ice for 90 mins. Lay pellets horizontally on top of the ice and rotate every 30 mins to ensure even thawing. Once thawed, add 4 mL of cold lysis buffer to each pellet, and using a serological pipet, gently pipet up and down to break up clumps. Incubate resuspended cells in ice for an additional 30 mins (plunged into ice). During 30 min incubation, rinse and RNase-zap (Ambion) glass dounces (use loose pestle “A”), gently dry and place on ice until needed. Prepare RNase-free Eppendorf tubes for spinning and for batch storage. Add batch labels to 1.5-1.7 mL RNase-free microcentrifuge tubes (labeling scheme below). Each batch will have an extra 1.5-1.7 mL RNase-free microcentrifuge tube for 40 μL of lysate, label the top of this tube (labeling scheme below). After 30 min incubation, transfer all 8 mL of cell pellet to dounce. Cell lysis is complete after douncing 100 times. Aliquot cell lysis into 1.5-1.7 mL temporary-microcentrifuge tubes. Place tubes in centrifuge with “fins” out, and spin at 1,200×g for 5 mins. After the first spin use a 1 mL pipet to resuspend each tube and repeat spin. This acts as an additional lysis step, is more vigorous and increases lysate yield. During second spin get liquid N2 and a fresh conical tube on ice. After spin is complete, transfer supernatant (lysate) from microcentrifuge tubes into the 50 mL conical tube and keep on ice. Repeat steps 10-14 for all other cell pellets until completed. Once all cell lysate has been transferred to the 50 mL conical tube pipet to mix so the solution is homogenous. Transfer 1 mL of lysate into batch-labeled microcentrifuge tubes and flash freeze in liquid nitrogen. Be sure to pipet up and down to mix throughout transfer step. Place all tubes in the […] for long-term storage.
as §2
as §3, with “The error on this measurement is determined by propagating error through the averaging and normalization steps. Values are plotted and fit for IC50 determination for each test sequence and titration of compound.” left out

CCNTB1 = test: In vitro transcription-translation (IVTT) assay, CCNTB1 reporter; settings: HeLa S3 lysate, 2 hrs at 30° C.
Procedure, shortened: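 IC50 fitted from the sfGFP/mCherry fluorescence ratio, normalized to no-drug control after no-DNA background subtraction. Reactions ran 2 h at 30° C in HeLa S3 cell lysate with reporter plasmid DNA and half-log compound titrations (30 μM−0.1 μM, in DMSO).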

[3] = IVTT assay, sfGFP/mCherry ratio

SMILES	IC50 (MYC) [µM]	IC50 (MCL-1; [3]) [µM]	IC50 (CCNE1 [1]) [µM]	IC50 (CCND1) [µM]	IC50 (MCL-1; IVTT, 2 hrs at 30° C.) [µM]	IC50 (CCNE1 [2]) [µM]	IC50 (CCNTB1) [µM]
O=C(NCC[C@H]1CCCCNC1)O[C@@H]1[C@@H](O)CN[C@@H]1Cc1ccc(-c2cnco2)cc1 [V193012, (2R,3S,4S)-4-hydroxy-2-(4-(oxazol-5-yl)benzyl)pyrrolidin-3-yl (2-((R)-azepan-3-yl)ethyl)carbamate]	< 10	< 10	< 10				
O=C(NCCOC(F)F)O[C@@H]1[C@@H](O)CN[C@@H]1Cc1ccc(-c2cnco2)cc1 [V193066, (2R,3S,4S)-4-hydroxy-2-(4-(oxazol-5-yl)benzyl)pyrrolidin-3-yl (2-(difluoromethoxy)ethyl)carbamate]	< 10	< 10	< 10				
O=C(NCC[C@@H]1CCCN1)O[C@@H]1[C@@H](O)CN[C@@H]1Cc1ccc(-c2cnn(C(F)F)c2)cc1 [V193080, (2R,3S,4S)-2-(4-(1-(difluoromethyl)-1H-pyrazol-4-yl)benzyl)-4-hydroxypyrrolidin-3-yl (2-((S)-pyrrolidin-2-yl)ethyl)carbamate]	< 10	< 10	< 10				
O=C(NCC[C@@H]1CCNC1)O[C@@H]1[C@@H](O)CN[C@@H]1Cc1ccc(-c2cnco2)cc1 [V193011, (2R,3S,4S)-4-hydroxy-2-{[4-(1,3-oxazol-5-yl)phenyl]methyl}pyrrolidin-3-yl N-{2-[(3S)-pyrrolidin-3-yl]ethyl}carbamate]	< 10	< 10	< 10				
O=C(NCc1cccc(F)c1)O[C@@H]1[C@@H](O)CN[C@@H]1Cc1ccc(-c2cc(C(F)F)cs2)cc1 [V193142, (2R,3S,4S)-2-(4-(4-(difluoromethyl)thiophen-2-yl)benzyl)-4-hydroxypyrrolidin-3-yl (3-fluorobenzyl)carbamate]	< 10	< 10	10 to 20				
O=C(NCc1cccc2c1CNC2)O[C@@H]1[C@@H](O)CN[C@@H]1Cc1ccc(C(F)F)cc1 [V193139, (2R,3S,4S)-2-(4-(difluoromethyl)benzyl)-4-hydroxypyrrolidin-3-yl (isoindolin-4-ylmethyl)carbamate]	< 10	< 10	< 10				
O=C(NCC[C@@H]1CCNC1)O[C@@H]1[C@@H](O)CN[C@@H]1Cc1ccc(-c2cnn(C(F)F)c2)cc1 [V193081, (2R,3S,4S)-2-(4-(1-(difluoromethyl)-1H-pyrazol-4-yl)benzyl)-4-hydroxypyrrolidin-3-yl (2-((S)-pyrrolidin-3-yl)ethyl)carbamate]	< 10	< 10	< 10				
O=C(NCc1cnn(C(F)F)c1)O[C@@H]1[C@@H](O)CN[C@@H]1Cc1ccc(-c2cnco2)cc1 [V193078, (2R,3S,4S)-4-hydroxy-2-(4-(oxazol-5-yl)benzyl)pyrrolidin-3-yl ((1-(difluoromethyl)-1H-pyrazol-4-yl)methyl)carbamate]	< 10	< 10	< 10				
O=C(NCC[C@@H]1CCN1)O[C@@H]1[C@@H](O)CN[C@@H]1Cc1ccc(-c2cnco2)c(F)c1 [V192991, (2R,3S,4S)-2-(3-fluoro-4-(oxazol-5-yl)benzyl)-4-hydroxypyrrolidin-3-yl (2-((S)-azetidin-2-yl)ethyl)carbamate]	< 10	< 10	< 10				
O=C(NCc1cccc(F)c1)O[C@@H]1[C@@H](O)CN[C@@H]1Cc1ccc(-c2cnn(C(F)F)c2)cc1 [V193079, (2R,3S,4S)-2-(4-(1-(difluoromethyl)-1H-pyrazol-4-yl)benzyl)-4-hydroxypyrrolidin-3-yl (3-fluorobenzyl)carbamate]	< 10	< 10	< 10				
O=C(NCC[C@H]1CC2(CC2)CN1)O[C@@H]1[C@@H](O)CN[C@@H]1Cc1ccc(-c2cnco2)cc1 [V193018, (2R,3S,4S)-4-hydroxy-2-(4-(oxazol-5-yl)benzyl)pyrrolidin-3-yl (2-((R)-5-azaspiro[2.4]heptan-6-yl)ethyl)carbamate]	< 10	< 10	< 10				
O=C(NC[C@H]1CCOC1)O[C@@H]1[C@@H](O)CN[C@@H]1Cc1ccc(Cl)cc1 [V188287, (2R,3S,4S)-2-[(4-chlorophenyl)methyl]-4-hydroxypyrrolidin-3-yl N-[(3R)-oxolan-3-ylmethyl]carbamate]	< 10			< 10	< 10	< 10	< 10
N#Cc1csc(-c2ccc(C[C@H]3NC[C@H](O)[C@H]3OC(=O)NCc3cccc(F)c3)cc2)c1 [V193129, (2R,3S,4S)-2-(4-(4-cyanothiophene-2-yl)benzyl)-4-hydroxypyrrolidin-3-yl (3-fluorobenzyl)carbamate]	< 10	< 10	< 10				
COc1ccc(C[C@H]2NC[C@H](O)[C@H]2OC(=O)NCCn2ccnc2N)cc1 [V188086, (2R,3S,4S)-4-hydroxy-2-[(4-methoxyphenyl)methyl]pyrrolidin-3-yl N-[2-(2-aminoimidazole-1-yl)ethyl]carbamate]	10 to 20			10 to 20	10 to 20	< 10	< 10
COc1ccc(C[C@H]2NC[C@H](O)[C@H]2OC(=O)NC[C@H]2CCN(c3ncccn3)C2)cc1 [V188171, (2R,3S,4S)-4-hydroxy-2-[(4-methoxyphenyl)methyl]pyrrolidin-3-yl N-{[(3R)-1-(pyrimidin-2-yl)pyrrolidin-3-yl]methyl}carbamate]	10 to 20			10 to 20	< 10	10 to 20	< 10
COc1ccc(C[C@H]2NC[C@H](O)[C@H]2OC(=O)NCc2ccnc(N3CCC3)c2)cc1 [V188225, (2R,3S,4S)-4-hydroxy-2-[(4-methoxyphenyl)methyl]pyrrolidin-3-yl N-{[2-(azetidin-1-yl)pyridin-4-yl]methyl}carbamate]	< 10			< 10	< 10	< 10	< 10
O=C(NCc1cnoc1)O[C@@H]1[C@@H](O)CN[C@@H]1Cc1ccc(Cl)cc1 [V188289, (2R,3S,4S)-2-[(4-chlorophenyl)methyl]-4-hydroxypyrrolidin-3-yl N-(1,2-oxazol-4-ylmethyl)carbamate]	< 10			< 10	< 10	< 10	< 10
